Test system: NOMO1
Assay: cell viability relative to DMSO control; higher = less cytotoxic
Settings: 48 h
In short: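 Library compounds in DMSO were pin-dosed into 1536-well plates (5 μl) holding NOMO1 or SEM (500 cells/well) or P12-Ichikawa (1000 cells/well) leukemia cells, across an 11-point threefold series of 47 μM to 0.79 nM. Each cell line had been adapted for at least four passages in each medium. CellTiter-Glo One luminescence was read after 48 h at 37°C. Viability is the per-plate percentage relative to DMSO wells, with cell-free wells as background.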

[1] = HPLM + 10% dialyzed FBS, 0.000781 µM
[2] = HPLM + 10% dialyzed FBS, 0.00234 µM
[3] = HPLM + 10% dialyzed FBS, 0.00702 µM
[4] = HPLM + 10% dialyzed FBS, 0.0211 µM
[5] = HPLM + 10% dialyzed FBS, 0.0632 µM
[6] = HPLM + 10% dialyzed FBS, 0.19 µM
[7] = HPLM + 10% dialyzed FBS, 0.569 µM
[8] = HPLM + 10% dialyzed FBS, 1.71 µM
[9] = HPLM + 10% dialyzed FBS, 5.12 µM
[10] = HPLM + 10% dialyzed FBS, 15.4 µM
[11] = HPLM + 10% dialyzed FBS, 46.1 µM
[12] = RPMI 5 mM glucose + 10% FBS, 0.000781 µM
[13] = RPMI 5 mM glucose + 10% FBS, 0.00234 µM
[14] = RPMI 5 mM glucose + 10% FBS, 0.00702 µM
[15] = RPMI 5 mM glucose + 10% FBS, 0.0211 µM
[16] = RPMI 5 mM glucose + 10% FBS, 0.0632 µM
[17] = RPMI 5 mM glucose + 10% FBS, 0.19 µM
[18] = RPMI 5 mM glucose + 10% FBS, 0.569 µM
[19] = RPMI 5 mM glucose + 10% FBS, 1.71 µM
[20] = RPMI 5 mM glucose + 10% FBS, 5.12 µM
[21] = RPMI 5 mM glucose + 10% FBS, 15.4 µM
[22] = RPMI 5 mM glucose + 10% FBS, 46.1 µM
[23] = RPMI 5 mM glucose + 10% dialyzed FBS, 0.000781 µM
[24] = RPMI 5 mM glucose + 10% dialyzed FBS, 0.00234 µM
[25] = RPMI 5 mM glucose + 10% dialyzed FBS, 0.00702 µM
[26] = RPMI 5 mM glucose + 10% dialyzed FBS, 0.0211 µM
[27] = RPMI 5 mM glucose + 10% dialyzed FBS, 0.0632 µM
[28] = RPMI 5 mM glucose + 10% dialyzed FBS, 0.19 µM
[29] = RPMI 5 mM glucose + 10% dialyzed FBS, 0.569 µM
[30] = RPMI 5 mM glucose + 10% dialyzed FBS, 1.71 µM
[31] = RPMI 5 mM glucose + 10% dialyzed FBS, 5.12 µM
[32] = RPMI 5 mM glucose + 10% dialyzed FBS, 15.4 µM
[33] = RPMI 5 mM glucose + 10% dialyzed FBS, 46.1 µM

Compound | cell viability [1] | cell viability [2] | cell viability [3] | cell viability [4] | cell viability [5] | cell viability [6] | cell viability [7] | cell viability [8] | cell viability [9] | cell viability [10] | cell viability [11] | cell viability [12] | cell viability [13] | cell viability [14] | cell viability [15] | cell viability [16] | cell viability [17] | cell viability [18] | cell viability [19] | cell viability [20] | cell viability [21] | cell viability [22] | cell viability [23] | cell viability [24] | cell viability [25] | cell viability [26] | cell viability [27] | cell viability [28] | cell viability [29] | cell viability [30] | cell viability [31] | cell viability [32] | cell viability [33]
CCCCN1CCC(CNC(=O)c2c3n(c4ccccc24)CCCO3)CC1 | 104% | 107% | 111% | 115% | 112% | 114% | 132% | 123% | 125% | 110% | 89.4% | 95.8% | 98.5% | 103% | 111% | 118% | 109% | 117% | 106% | 108% | 117% | 90.5% | 96.5% | 110% | 105% | 114% | 110% | 106% | 117% | 104% | 113% | 124% | 90.1%
c1cc2c(cc1[C@H]1OC[C@H]3[C@@H]1CO[C@@H]3c1ccc3c(c1)OCO3)OCO2 | 115% | 120% | 135% | 112% | 134% | 143% | 139% | 138% | 118% | 131% | 124% | 113% | 122% | 129% | 130% | 146% | 138% | 139% | 125% | 119% | 136% | 130% | 119% | 127% | 123% | 130% | 139% | 137% | 125% | 164% | 117% | 129% | 137%
COc1cccc(N(C)C(=S)Oc2ccc3c(c2)CCCC3)n1 | 93.3% | 95.6% | 118% | 89.1% | 111% | 102% | 101% | 110% | 108% | 102% | 99.6% | 85.4% | 88.1% | 87% | 82.2% | 103% | 90.8% | 91% | 88.1% | 103% | 92.2% | 105% | 82.3% | 98.9% | 94% | 84% | 99.5% | 97.7% | 103% | 94.2% | 105% | 108% | 101%
C/C1=C/C(=C(/CNC(=O)C2=CC(=CC3=C2C=N[N]3C4CCCC4)C5=CC=C(CN6CCOCC6)C=C5)C(=O)N1)C |  |  |  |  |  |  |  |  |  |  |  | 110% | 125% | 118% | 120% | 132% | 127% | 127% | 124% | 104% | 117% | 22% | 124% | 118% | 128% | 123% | 125% | 111% | 131% | 125% | 125% | 112% | 13.5%
COc1cc2c(cc1OC)CN(CCc1ccc(NC(=O)c3cccc4c(=O)c5cccc(OC)c5[nH]c34)cc1)CC2 | 97.2% | 96.8% | 114% | 121% | 122% | 121% | 109% | 45% | 29.8% | 16.8% | 11.3% | 123% | 112% | 127% | 118% | 119% | 116% | 122% | 112% | 62.8% | 23.7% | 14.1% | 112% | 114% | 127% | 113% | 130% | 130% | 133% | 133% | 52.3% | 35.2% | 24.2%
Clc1ccc(C(c2ccc(Cl)cc2)[n+]2ccn(CC(OCc3ccc(Cl)cc3Cl)c3ccc(Cl)cc3Cl)c2)cc1 (stereo not given) | 108% | 99% | 113% | 110% | 107% | 107% | 115% | 102% | 101% | 81.2% | 3.86% | 94.6% | 100% | 105% | 94.7% | 119% | 113% | 91% | 103% | 102% | 74.3% | 3.56% | 105% | 105% | 118% | 114% | 112% | 107% | 98.5% | 91.3% | 90.4% | 83% | 2.5%
O=C(O)c1cccc(-c2noc(-c3ccccc3F)n2)c1 | 106% | 111% | 100% | 133% | 112% | 121% | 109% | 107% | 110% | 96.8% | 101% | 86.3% | 90.6% | 106% | 103% | 86.2% | 98% | 99.6% | 94.7% | 94.2% | 91.9% | 89.9% | 93.2% | 101% | 101% | 95.2% | 96.6% | 98.9% | 112% | 95.8% | 103% | 87.8% | 81.3%
C[C@]12CC[C@H]3[C@@H](CC[C@@]45O[C@@H]4C(O)=C(C#N)C[C@]35C)[C@@H]1CC[C@@H]2O | 102% | 111% | 118% | 112% | 123% | 111% | 110% | 116% | 97.2% | 109% | 21.2% | 111% | 119% | 117% | 127% | 117% | 119% | 128% | 118% | 117% | 117% | 30.7% | 110% | 121% | 127% | 132% | 143% | 132% | 128% | 135% | 136% | 125% | 24.3%
CC(C)[C@H]1C(=O)N[C@H](CO)Cc2c[nH]c3cccc(c23)N1C | 104% | 98.3% | 106% | 111% | 125% | 128% | 112% | 75.8% | 50.6% | 47.2% | 45% | 96.2% | 103% | 112% | 104% | 111% | 119% | 99.7% | 77.7% | 67.9% | 51.1% | 46.7% | 81.7% | 94.4% | 93.2% | 93.2% | 97.5% | 120% | 100% | 69.5% | 71.1% | 56% | 47.4%
COc1cc(N2CCC(N3CCN(C)CC3)CC2)ccc1Nc1ncc(Cl)c(Nc2ccccc2[S+](=O)([O-])C(C)C)n1 | 69.2% | 80% | 98.6% | 118% | 147% | 124% | 130% | 65.1% | 55.6% | 38.7% | 17.1% | 87.2% | 73.3% | 125% | 136% | 133% | 134% | 130% | 75.9% | 64.9% | 61.5% | 49.6% | 78.3% | 66.3% | 103% | 113% | 146% | 142% | 131% | 84.3% | 61.4% | 60.4% | 59.1%
Cc1nnc(C(C)C)n1[C@@H]1C[C@H]2CC[C@@H](C1)N2CC[C@H](NC(=O)C1CCC(F)(F)CC1)c1ccccc1 | 70.8% | 93.7% | 112% | 93.1% | 98.7% | 103% | 107% | 104% | 103% | 84.5% | 25.5% | 83.6% | 82.9% | 95.2% | 91.3% | 84.5% | 99.9% | 92% | 88.5% | 84.3% | 91.3% | 26.3% | 68.3% | 93.2% | 82.6% | 84.8% | 93.2% | 95.5% | 95.1% | 90.3% | 84.4% | 67.1% | 29.9%
Nc1ncnc2nc(-c3ccc(N4CCOCC4)nc3)cc(-c3cccc(Br)c3)c12 |  |  |  |  |  |  |  |  |  |  |  | 108% | 107% | 116% | 121% | 111% | 118% | 122% | 115% | 114% | 106% | 107% | 108% | 127% | 121% | 111% | 106% | 120% | 110% | 117% | 116% | 106% | 120%
O=C(Nc1ccccc1)Nc1ccc(-c2ccc(C(=O)[C@@H]3CCC[C@H]3C(=O)O)cc2)cc1 | 109% | 122% | 103% | 94.1% | 119% | 98.3% | 99% | 77% | 67.2% | 66.7% | 56.5% | 109% | 111% | 98.6% | 101% | 110% | 97.7% | 100% | 95.9% | 90.6% | 83.5% | 69.5% | 105% | 121% | 114% | 105% | 122% | 97.9% | 88.8% | 96% | 81.8% | 73.7% | 59.7%
Cc1cccc(-c2[nH]c(C(C)(C)C)nc2-c2ccc3nccnc3c2)n1 | 113% | 135% | 110% | 117% | 111% | 133% | 123% | 128% | 112% | 114% | 47% | 133% | 121% | 117% | 124% | 123% | 98.2% | 124% | 106% | 106% | 114% | 96.6% | 119% | 112% | 122% | 108% | 113% | 119% | 120% | 118% | 112% | 98.2% | 51.4%
CCOc1ccccc1N/N=C1/C(=O)N(c2nc(-c3ccccc3)cs2)N=C1C | 118% | 122% | 119% | 123% | 113% | 117% | 115% | 108% | 103% | 57.5% | 32.1% | 109% | 103% | 104% | 114% | 97.3% | 109% | 101% | 97.3% | 97.8% | 77.1% | 56.1% | 109% | 106% | 103% | 122% | 118% | 102% | 104% | 90.5% | 90% | 59.8% | 39.7%
Nc1nccc(-c2ccc3noc(-c4ccc(Cl)cc4)c3c2)n1 |  |  |  |  |  |  |  |  |  |  |  | 101% | 117% | 103% | 127% | 102% | 111% | 115% | 107% | 108% | 101% | 104% | 121% | 115% | 115% | 120% | 122% | 110% | 127% | 106% | 118% | 116% | 113%

Reference: the supplement of paper PMC11451515
